# Laboratory results from paper PMC9385704, “A tubulin binding molecule drives differentiation of acute myeloid leukemia cells” (iScience, 2022).
# Target: tubulin beta chain (TUBB) (Homo sapiens, UniProt P07437)
# Assay: competition with photoaffinity probe […] in HL-60 cells; pull-down LC-MS/MS and anti-TUBB immunoblot
# Assay type: cell-based
# Chain of tubulin beta chain (TUBB) (P07437 whole entry): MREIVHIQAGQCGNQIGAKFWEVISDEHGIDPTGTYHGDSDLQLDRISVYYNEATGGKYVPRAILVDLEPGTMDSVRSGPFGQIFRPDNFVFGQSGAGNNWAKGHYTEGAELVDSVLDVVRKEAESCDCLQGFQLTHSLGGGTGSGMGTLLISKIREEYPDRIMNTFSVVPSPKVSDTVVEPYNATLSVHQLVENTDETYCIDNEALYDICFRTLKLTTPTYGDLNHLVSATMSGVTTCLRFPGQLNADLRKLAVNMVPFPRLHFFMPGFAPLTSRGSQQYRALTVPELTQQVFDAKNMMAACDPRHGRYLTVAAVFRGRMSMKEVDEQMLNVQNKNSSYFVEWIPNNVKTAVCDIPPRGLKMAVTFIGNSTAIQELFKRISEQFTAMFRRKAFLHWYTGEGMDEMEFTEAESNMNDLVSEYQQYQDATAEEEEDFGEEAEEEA
structure (smiles),measurement,value
"Cc1cc(C#N)ccc1-c1cc2c(cn1)ncn2-c1ccc2c(C)n[nH]c2c1 [compound 5, 3-Methyl-4-[1-(3-methyl-1H-indazol-6-yl)imidazo[4,5-c]pyridin-6-yl]benzonitrile]",competition with photoaffinity probe 4 in HL-60 cells; pull-down LC-MS/MS and an,The results clearly show concentration-dependent competition with OXS0082555 and paclitaxel confirming tubulin beta chain as a direct target
